Test results: patent publication US10004701B2, “Methods and compositions for treating infection” (UNIVERSITY OF ROCHESTER, priority 2012, dated 2018)
Counter-ions that a name gives are not always drawn. Like-named read-outs stand apart in the source and are kept apart here.

Assays:
Assay in all cases: AK assay 384-well format, Prestwick library screening
E. coli = format: cell-based, Escherichia coli; details: 50 μM final drug concentration; for AK-based Prestwick Library Screening Results, E. coli (fold increase in extracellular AK activity): planktonic; for fold induction at 50 µM: Escherichia coli, 3 h
E. cloacae = format: cell-based, Enterobacter cloacae; details: 50 μM final drug concentration; for AK-based Prestwick Library Screening Results, E. cloacae (fold increase in extracellular AK activity): planktonic; for fold induction at 50 µM: Enterobacter cloacae, 3 h
E. faecium = format: cell-based, Enterococcus faecium; details: 50 μM final drug concentration; for AK-based Prestwick Library Screening Results, E. faecium (fold increase in extracellular AK activity): planktonic; for fold induction at 50 µM: Enterococcus faecium, 3 h
[1] = system: S. aureus strain USA300-0114; format: cell-based, Staphylococcus aureus; details: 50 μM final drug concentration; for AK-based Prestwick Library Screening Results, S. aureus (fold increase in extracellular AK activity): planktonic; for fold induction at 50 µM: Staphylococcus aureus, USA300, 3 h
P. aeruginosa = format: cell-based, Pseudomonas aeruginosa; details: 50 μM final drug concentration; for AK-based Prestwick Library Screening Results, P. aeruginosa (fold increase in extracellular AK activity): planktonic; for fold induction at 50 µM: Pseudomonas aeruginosa, 3 h
[2] = system: A. baumannii strain 98-37-09; format: cell-based, Acinetobacter baumannii; details: 50 μM final drug concentration; for AK-based Prestwick Library Screening Results, A. baumannii (fold increase in extracellular AK activity): planktonic; for fold induction at 50 µM: Acinetobacter baumannii, 983709, 3 h
K. pneumoniae = format: cell-based, Klebsiella pneumoniae; details: 50 μM final drug concentration; for AK-based Prestwick Library Screening Results, K. pneumoniae (fold increase in extracellular AK activity): planktonic; for fold induction at 50 µM: Klebsiella pneumoniae, 3 h
[3] = 384-well format, cutoff for positive-scoring molecules 3-fold increase, read-out: AK-based Prestwick Library Screening Results, E. coli (increase in extracellular AK activity)
[4] = 384-well format, cutoff for positive-scoring molecules 3-fold increase, read-out: AK-based Prestwick Library Screening Results, E. cloacae (increase in extracellular AK activity)
[5] = 384-well format, cutoff for positive-scoring molecules 3-fold increase, read-out: AK-based Prestwick Library Screening Results, E. faecium (increase in extracellular AK activity)
[6] = 384-well format, cutoff for positive-scoring molecules 3-fold increase, read-out: AK-based Prestwick Library Screening Results, S. aureus (increase in extracellular AK activity)
[7] = 384-well format, cutoff for positive-scoring molecules 3-fold increase, read-out: AK-based Prestwick Library Screening Results, P. aeruginosa (increase in extracellular AK activity)
[8] = 384-well format, cutoff for positive-scoring molecules 3-fold increase, read-out: AK-based Prestwick Library Screening Results, A. baumannii (increase in extracellular AK activity)
[9] = 384-well format, cutoff for positive-scoring molecules 3-fold increase, read-out: AK-based Prestwick Library Screening Results, K. pneumoniae (increase in extracellular AK activity)
[10] = planktonic E. coli, 384-well, cutoff for positive-scoring molecules 3-fold increase, read-out: AK-based Prestwick Library Screening Results: E. coli (increase in extracellular AK activity)
[11] = planktonic E. cloacae, 384-well, cutoff for positive-scoring molecules 3-fold increase, read-out: AK-based Prestwick Library Screening Results: E. cloacae (increase in extracellular AK activity)
[12] = planktonic E. faecium, 384-well, cutoff for positive-scoring molecules 3-fold increase, read-out: AK-based Prestwick Library Screening Results: E. faecium (increase in extracellular AK activity)
[13] = planktonic S. aureus, 384-well, cutoff for positive-scoring molecules 3-fold increase, read-out: AK-based Prestwick Library Screening Results: S. aureus (increase in extracellular AK activity)
[14] = planktonic P. aeruginosa, 384-well, cutoff for positive-scoring molecules 3-fold increase, read-out: AK-based Prestwick Library Screening Results: P. aeruginosa (increase in extracellular AK activity)
[15] = planktonic A. baumannii, 384-well, cutoff for positive-scoring molecules 3-fold increase, read-out: AK-based Prestwick Library Screening Results: A. baumannii (increase in extracellular AK activity)
[16] = planktonic K. pneumoniae, 384-well, cutoff for positive-scoring molecules 3-fold increase, read-out: AK-based Prestwick Library Screening Results: K. pneumoniae (increase in extracellular AK activity)
[17] = cutoff for positive 3-fold increase

In the case of `COC1=C[C@@H]2C3=C([C@@H]2C1=O)[C@@H](NC(C)=O)CCc1cc(OC)c(OC)c(OC)c13` [Lumicolchicine gamma], the “AK-based Prestwick Library Screening Results, E. coli (fold increase in extracellular AK activity)” value (E. coli; […]) is reported as 1.1, the “AK-based Prestwick Library Screening Results, E. cloacae (fold increase in extracellular AK activity)” value (E. cloacae; […]) is reported as 1.4 and the “AK-based Prestwick Library Screening Results, E. faecium (fold increase in extracellular AK activity)” value (E. faecium; […]) is reported as 1.0. The “AK-based Prestwick Library Screening Results, S. aureus (fold increase in extracellular AK activity)” value ([1]; […]) was 0.9, the “AK-based Prestwick Library Screening Results, P. aeruginosa (fold increase in extracellular AK activity)” value (P. aeruginosa; […]) was 1.1 and the “AK-based Prestwick Library Screening Results, A. baumannii (fold increase in extracellular AK activity)” value ([2]; […]) was 1.2. For the same compound, the “AK-based Prestwick Library Screening Results, K. pneumoniae (fold increase in extracellular AK activity)” value (K. pneumoniae; […]) was 1.0.
Work on `O=c1cc(-c2ccc(O)c(O)c2)oc2cc(O)cc(O)c12` [Luteolin] yielded a fold induction at 50 µM (E. coli; cutoff for positive-scoring molecules 3-fold increase, read-out: AK-based Prestwick Library Screening Results, E. coli (fold increase in extracellular AK activity)) of 0.4, a fold induction at 50 µM (E. cloacae; cutoff for positive-scoring molecules 3-fold increase, read-out: AK-based Prestwick Library Screening Results, E. cloacae (fold increase in extracellular AK activity)) of 1.6 and a fold induction at 50 µM (E. faecium; cutoff for positive-scoring molecules 3-fold increase, read-out: AK-based Prestwick Library Screening Results, E. faecium (fold increase in extracellular AK activity)) of 0.5. It also gave a fold induction at 50 µM ([1]; cutoff for positive-scoring molecules 3-fold increase, read-out: AK-based Prestwick Library Screening Results, S. aureus (fold increase in extracellular AK activity)) of 0.2, a fold induction at 50 µM (P. aeruginosa; cutoff for positive-scoring molecules 3-fold increase, read-out: AK-based Prestwick Library Screening Results, P. aeruginosa (fold increase in extracellular AK activity)) of 0.5 and a fold induction at 50 µM ([2]; cutoff for positive-scoring molecules 3-fold increase, read-out: AK-based Prestwick Library Screening Results, A. baumannii (fold increase in extracellular AK activity)) of 0.3. The fold induction at 50 µM (K. pneumoniae; cutoff for positive-scoring molecules 3-fold increase, read-out: AK-based Prestwick Library Screening Results, K. pneumoniae (fold increase in extracellular AK activity)) was 0.5.
In the case of `CN(C)[C@@H]1C(O)=C(C(=O)NCNCCCC[C@H](N)C(=O)O)C(=O)[C@@]2(O)C(O)=C3C(=O)c4c(O)cccc4[C@@](C)(O)[C@H]3C[C@@H]12` [Lymecycline], the fold induction at 50 µM (E. coli; planktonic E. coli, […], read-out: AK-based Prestwick library screening result, E. coli (fold increase in extracellular AK activity)) is reported as 0.8, the fold induction at 50 µM (E. cloacae; planktonic E. cloacae, […], read-out: AK-based Prestwick library screening result, E. cloacae (fold increase in extracellular AK activity)) is reported as 1.2 and the fold induction at 50 µM (E. faecium; planktonic E. faecium, […], read-out: AK-based Prestwick library screening result, E. faecium (fold increase in extracellular AK activity)) is reported as 1. It also gave a fold induction at 50 µM ([1]; planktonic S. aureus, […], read-out: AK-based Prestwick library screening result, S. aureus (fold increase in extracellular AK activity)) of 0.7, a fold induction at 50 µM (P. aeruginosa; planktonic P. aeruginosa, […], read-out: AK-based Prestwick library screening result, P. aeruginosa (fold increase in extracellular AK activity)) of 0.7 and a fold induction at 50 µM ([2]; planktonic A. baumannii, […], read-out: AK-based Prestwick library screening result, A. baumannii (fold increase in extracellular AK activity)) of 0.8. The fold induction at 50 µM (K. pneumoniae; planktonic K. pneumoniae, […], read-out: AK-based Prestwick library screening result, K. pneumoniae (fold increase in extracellular AK activity)) was 0.7.
Compound `C#C[C@]1(O)CC[C@H]2[C@@H]3CCC4=CCCC[C@@H]4[C@H]3CC[C@@]21C` [Lynestrenol] has a fold induction at 50 µM (E. coli; [3]) of 0.7, a fold induction at 50 µM (E. cloacae; [4]) of 0.7 and a fold induction at 50 µM (E. faecium; [5]) of 0.9. The fold induction at 50 µM [1, 6] was 0.5, the fold induction at 50 µM (P. aeruginosa; [7]) was 0.6 and the fold induction at 50 µM [2, 8] was 1.4. It also gave a fold induction at 50 µM (K. pneumoniae; [9]) of 0.6.
In the case of `CN1C[C@H](CO)C=C2c3cccc4[nH]cc(c34)C[C@H]21` [Lysergol], the “AK-based Prestwick Library Screening Results, E. coli (fold increase in extracellular AK activity)” value (E. coli; […]) is reported as 1.1, the “AK-based Prestwick Library Screening Results, E. cloacae (fold increase in extracellular AK activity)” value (E. cloacae; […]) is reported as 1.6 and the “AK-based Prestwick Library Screening Results, E. faecium (fold increase in extracellular AK activity)” value (E. faecium; […]) is reported as 0.9. The “AK-based Prestwick Library Screening Results, S. aureus (fold increase in extracellular AK activity)” value ([1]; […]) was 0.9, the “AK-based Prestwick Library Screening Results, P. aeruginosa (fold increase in extracellular AK activity)” value (P. aeruginosa; […]) was 1.1 and the “AK-based Prestwick Library Screening Results, A. baumannii (fold increase in extracellular AK activity)” value ([2]; […]) was 1.0. The “AK-based Prestwick Library Screening Results, K. pneumoniae (fold increase in extracellular AK activity)” value (K. pneumoniae; […]) was 0.8.
Compound `NCc1ccc(S(N)(=O)=O)cc1` [Mafenide hydrochloride] has a fold induction at 50 µM (E. coli; [3]) of 0.6, a fold induction at 50 µM (E. cloacae; [4]) of 0.6 and a fold induction at 50 µM (E. faecium; [5]) of 1.2. It also gave a fold induction at 50 µM [1, 6] of 0.6, a fold induction at 50 µM (P. aeruginosa; [7]) of 0.5 and a fold induction at 50 µM [2, 8] of 0.5. It also gave a fold induction at 50 µM (K. pneumoniae; [9]) of 0.5.
`CNCCCC12CCC(c3ccccc31)c1ccccc12` [Maprotiline hydrochloride] gave a fold induction at 50 µM (E. coli; planktonic E. coli, cutoff for positive-scoring molecules 3-fold increase, read-out: AK-based Prestwick Library Screening Results, E. coli (increase in extracellular AK activity)) of 0.8, a fold induction at 50 µM (E. cloacae; planktonic E. cloacae, cutoff for positive-scoring molecules 3-fold increase, read-out: AK-based Prestwick Library Screening Results, E. cloacae (increase in extracellular AK activity)) of 0.9 and a fold induction at 50 µM (E. faecium; planktonic E. faecium, cutoff for positive-scoring molecules 3-fold increase, read-out: AK-based Prestwick Library Screening Results, E. faecium (increase in extracellular AK activity)) of 0.8. For the same compound, the fold induction at 50 µM ([1]; planktonic S. aureus, cutoff for positive-scoring molecules 3-fold increase, read-out: AK-based Prestwick Library Screening Results, S. aureus (increase in extracellular AK activity)) was 1.1, the fold induction at 50 µM (P. aeruginosa; planktonic P. aeruginosa, cutoff for positive-scoring molecules 3-fold increase, read-out: AK-based Prestwick Library Screening Results, P. aeruginosa (increase in extracellular AK activity)) was 0.9 and the fold induction at 50 µM ([2]; planktonic A. baumannii, cutoff for positive-scoring molecules 3-fold increase, read-out: AK-based Prestwick Library Screening Results, A. baumannii (increase in extracellular AK activity)) was 0.8. For the same compound, the fold induction at 50 µM (K. pneumoniae; planktonic K. pneumoniae, cutoff for positive-scoring molecules 3-fold increase, read-out: AK-based Prestwick Library Screening Results, K. pneumoniae (increase in extracellular AK activity)) was 0.6.
`COC(=O)Nc1nc2ccc(C(=O)c3ccccc3)cc2[nH]1` [Mebendazole] was tested, and the fold induction at 50 µM (E. coli; [10]) was 0.8, the fold induction at 50 µM (E. cloacae; [11]) was 1.2 and the fold induction at 50 µM (E. faecium; [12]) was 0.9. For the same compound, the fold induction at 50 µM [1, 13] was 0.9, the fold induction at 50 µM (P. aeruginosa; [14]) was 0.8 and the fold induction at 50 µM [2, 15] was 0.7. The fold induction at 50 µM (K. pneumoniae; [16]) was 0.8.
With `CCN(CCCCOC(=O)c1ccc(OC)c(OC)c1)C(C)Cc1ccc(OC)cc1` (stereo not shown) [Mebeverine hydrochloride] the fold induction at 50 µM (E. coli; [10]) was 1.3, the fold induction at 50 µM (E. cloacae; [11]) was 1.3 and the fold induction at 50 µM (E. faecium; [12]) was 1. It also gave a fold induction at 50 µM [1, 13] of 1.1, a fold induction at 50 µM (P. aeruginosa; [14]) of 1.1 and a fold induction at 50 µM [2, 15] of 1.4. For the same compound, the fold induction at 50 µM (K. pneumoniae; [16]) was 1.
`CN1CCc2c(c3ccccc3n2Cc2ccccc2)C1.O=S(=O)(O)c1cccc2c(S(=O)(=O)O)cccc12` [Mebhydroline 1,5-naphtalenedisulfonate] was tested, and the “AK-based Prestwick Library Screening Results, E. coli (fold increase in extracellular AK activity)” value (E. coli; [17]) was 1.1, the “AK-based Prestwick Library Screening Results, E. cloacae (fold increase in extracellular AK activity)” value (E. cloacae; [17]) was 1.5 and the “AK-based Prestwick Library Screening Results, E. faecium (fold increase in extracellular AK activity)” value (E. faecium; [17]) was 1.0. The “AK-based Prestwick Library Screening Results, S. aureus (fold increase in extracellular AK activity)” value [1, 17] was 0.9, the “AK-based Prestwick Library Screening Results, P. aeruginosa (fold increase in extracellular AK activity)” value (P. aeruginosa; [17]) was 1.1 and the “AK-based Prestwick Library Screening Results, A. baumannii (fold increase in extracellular AK activity)” value [2, 17] was 0.9. The “AK-based Prestwick Library Screening Results, K. pneumoniae (fold increase in extracellular AK activity)” value (K. pneumoniae; [17]) was 0.8.
